From patent US20240270727A1, “NEW SUBSTITUTED PYRIDINES AS FUNGICIDE” (BASF SE, priority 2021, published 2024)

Legend:
Septoria tritici = assay: Comparative Example 1: activity against leaf blotch on wheat caused by Septoria tritici (microtiter plate); type: cell-based; conditions: 7 days after inoculation
Leptosphaeria nodorum = assay: Comparative Example 2: activity against wheat leaf spots caused by Leptosphaeria nodorum (microtiter plate); type: cell-based; conditions: 7 days after inoculation
Ustilago maydis = assay: Example 12: activity against Ustilago maydis in the microtiterplate test; conditions: 31 ppm, DOB media pH 7
Experimental: The stock solutions were mixed according to the ratio, pipetted onto a micro titer plate (MTP) and diluted with water to the stated concentrations. A spore suspension of the Ustilago maydis isolates in a DOB media (ph 7) was then added.

Botrytis cinerea = assay: Example 1: activity against the grey mold Botrytis cinerea in the microtiterplate test; type: cell-based; conditions: 31 ppm, 7 days after inoculation, relative to active compound-free control (100%)
Fusarium culmorum = assay: Example 2: activity against Fusarium culmorum in the microtiterplate test; conditions: 31 ppm, 7 days after inoculation, relative to active compound-free control (100%)
Experimental: The stock solutions were mixed according to the ratio, pipetted onto a micro titer plate (MTP) and diluted with water to the stated concentrations. A spore suspension of Fusarium culmorum in an aqueous biomalt or yeast-bactopeptone-glycerine or DOB solution was then added. The plates were placed in a water vapor-saturated chamber at a temperature of 18° C. Using an absorption photometer, the MTPs were measured at 405 nm 7 days after the inoculation.

| SMILES | Growth (%) at 125 pm SEPTTR (Septoria tritici) [%] | Growth (%) at 8 pm LEPTNO (Leptosphaeria nodorum) [%] | growth of the pathogen (Ustilago maydis) [%] | growth of the pathogen (Botrytis cinerea) [%] | growth of the pathogen (Fusarium culmorum) [%] |
| --- | --- | --- | --- | --- | --- |
| Cc1cc(C2=NCCOc3ccccc32)cnc1C [D1, reference compound] | 98 | 45 |  |  |  |
| Cc1cc(C2=NC(C(C)(C)C)COc3ccccc32)cnc1C (stereo not drawn) [Ex-1] |  |  | 0 | 0 |  |
| Cc1cc(C2=NCC(C)(C)Oc3ccccc32)cnc1C [Ex-2] | 51 | 4 |  | 0 | 1 |
| Cc1cc(C2=NC(C)(C)C(C)(C)Oc3ccccc32)cnc1C [Ex-3] | 64 | 30 |  | 0 | 1 |
| Cc1cc(C2=NC(C)(C)C(C)(C)Oc3ccccc32)cnc1C(F)F [Ex-4] |  |  |  | 0 |  |
| Cc1cc(C2=NCC(C)(C)Oc3ccccc32)cnc1C(F)F [Ex-8] |  |  |  | 0 |  |
| COCC1(C)Oc2ccccc2C(c2cnc(C)c(C)c2)=NC1(C)C (stereo not drawn) [Ex-9] |  |  |  | 0 |  |
| COCC1(C)Oc2ccccc2C(c2cnc(C(F)F)c(C)c2)=NC1(C)C (stereo not drawn) [Ex-10] |  |  |  | 0 |  |
| Cc1cc(C2=NC(C)C(C)(C)Oc3ccccc32)cnc1C (stereo not drawn) [Ex-11] | 52 | 6 |  | 0 |  |
| Cc1cc(C2=NC(C(C)(C)C)C(C)Oc3ccccc32)cnc1C (stereo not drawn) [Ex-24] |  |  | 0 |  |  |
| Cc1cc(C2=NC(=O)C3(CC3)Oc3c(F)cccc32)cnc1C(F)F [Ex-41] |  |  | 0 |  |  |
